Experimental data published in patent US6403123B1, “Method for topical treatment of anthralin-responsive dermatological disorders” (priority 2000, dated 2002).

Experiments:
Type in all cases: in vivo, human
psoriasis [1] = test: Earlier or concurrent treatment of the psoriasis subjects with other drugs (case histories); details: person
[2] = Staining of skin and clothing and skin irritation during the topical anthralin method
Description: As the anthralin formulation penetrates into the lesions or evaporates, any unabsorbed anthralin formulation on the lesion surface can be wiped off with a tissue, paper towel, cloth or the like. Thereafter, a wax formulation is applied to the lesion to cover the anthralin formulation-treated area. The wax formulation may be applied using any application method that allows for applying a relatively uniform layer of the wax formulation. Such application methods include, but are not limited to, spraying, roll-on, and application by brush, cotton gauze, pad, sponge-tipped applicator, and the like. As the vehicle(s) of the wax formulation evaporate, a thin film of wax will be formed to cover the lesion surface of the involved area. There are two advantages to the presence of the wax film: (a) the thin wax film will act as an occlusive backing to drive the penetration of anthralin deeper into the lesions; and (b) the wax film will prevent any trace amounts of anthralin from contacting clothing or other objects.
Finally, a powder, such as talc, may then be optionally applied over the wax film in order to eliminate any remaining anthralin thereby further ensuring that staining of clothing or other objects is avoided. […]

psoriasis [3] = test: Topical treatment of psoriasis patients by the method: anthralin formulation, then wax formulation, then talc powder; details: person
Description: In accordance with the present invention, the anthralin formulation is first topically applied to the involved skin area, or skin lesions, such as psoriatic plaques or eczema, of a patient in need of such treatment. […] The anthralin formulation may be applied by any means which provides a relatively uniform layer of anthralin formulation on the involved area. Suitable means of application include spraying, roll-on, and application using a brush, saturated cotton gauze, pad, sponge-tipped applicator, and the like. As the anthralin formulation penetrates into the lesions or evaporates, any unabsorbed anthralin formulation on the lesion surface can be wiped off with a tissue, paper towel, cloth or the like. Thereafter, a wax formulation is applied to the lesion to cover the anthralin formulation-treated area. The wax formulation may be applied using any application method that allows for applying a relatively uniform layer of the wax formulation. Such application methods include, but are not limited to, spraying, roll-on, and application by brush, cotton gauze, pad, sponge-tipped applicator, and the like. As the vehicle(s) of the wax formulation evaporate, a thin film of wax will be formed to cover the lesion surface of the involved area. […] Finally, a powder, such as talc, may then be optionally applied over the wax film in order to eliminate any remaining anthralin thereby further ensuring that staining of clothing or other objects is avoided. […] The powder may be applied by dusting using a puff or pad, sprinkling, spreading and the like. The method was typically carried out as follows. A liquid anthralin formulation as formulated in Example 1(A) was topically applied to skin lesions once to twice daily by the patient using a saturated cotton pad. As the anthralin penetrated into the lesions and the solvents evaporated, a tissue or paper towel was used to wipe off excess materials from the surface of the lesions. The wax formulation as formulated in Example 2(B) was topically applied to the lesions. […]

With `C=C1/C(=C\C=C2/CCC[C@]3(C)[C@@H]([C@H](C)/C=C/[C@@H](O)C4CC4)CC[C@@H]23)C[C@@H](O)C[C@@H]1O` [calcipotriene] the “response of plaque psoriasis” value (psoriasis [1]; Example 6, plaque psoriasis for four years, topical treatment) was “did not improve well” and the “response of generalized small plaque psoriasis” value (psoriasis [1]; Example 7, psoriasis for seventeen years, topical treatment) was “did not respond”.

In the case of `O=C1c2c(O)cccc2Cc2cccc(O)c21` [anthralin, 1,8,9,-anthracenetriol], the staining of clothes ([2]; Example 10, 0.25% anthralin, wax formulation Example 2(B), fine talc, twice a day for four weeks) is reported as “no staining of their clothes”, the “skin irritation and staining to the skin and clothing” value ([2]; typical case, about 0.1% to about 0.2% by weight anthralin, once or twice daily on chronic psoriatic plaques) is reported as “without skin irritation and staining to the skin and clothing” and the “improvement of the psoriasis” value (psoriasis [3]; Example 6, anthralin 0.2% increased to 1% by weight, once daily, maintained over one year) is reported as “approximately 90%”. For the same molecule, the “skin free of psoriasis” value (psoriasis [3]; Example 7, anthralin 0.3% increased to 0.6% by weight, once daily, after four months) was “approximately 90%” and the “improvement of psoriatic lesions” value (psoriasis [3]; Example 8, small plaque psoriasis, 3% anthralin formulation once daily, after four months) was “approximately 75%”.

With `CN(Cc1cnc2nc(N)nc(N)c2n1)c1ccc(C(=O)N[C@@H](CCC(=O)O)C(=O)O)cc1` [methotrexate] the improvement of lesions (psoriasis [1]; Example 5, generalized plaque psoriasis, intramuscular injections every one to four weeks) was “approximately 50%”.
